Structures can show the parent of a compound that is named as a salt.

The target in this experiment is T1, histamine H2-receptors (Rattus norvegicus, UniProt P25102).
T1 construct: histamine H2 -receptors was tested in Sprague-Dawley male rats; from tissue; host or cells: stomach of the living anesthetized Sprague-Dawley rat (in vivo perfused stomach)
T1 sequence (P25102 whole entry, the tested form may be a part): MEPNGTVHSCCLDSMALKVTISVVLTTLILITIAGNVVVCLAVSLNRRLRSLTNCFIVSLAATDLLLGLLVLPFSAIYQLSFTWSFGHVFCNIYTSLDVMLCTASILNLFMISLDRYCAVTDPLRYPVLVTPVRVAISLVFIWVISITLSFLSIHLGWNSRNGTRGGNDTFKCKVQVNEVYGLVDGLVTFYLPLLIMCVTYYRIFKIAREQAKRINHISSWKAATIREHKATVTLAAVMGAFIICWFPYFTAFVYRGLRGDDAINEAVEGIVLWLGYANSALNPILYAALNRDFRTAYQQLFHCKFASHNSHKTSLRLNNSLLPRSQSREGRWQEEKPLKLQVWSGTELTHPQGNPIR
The experiment can be described thus: blocking activity of histamine H2-receptors: antagonism of histamine-induced gastric acid secretion (perfused stomach, pH recording) in anesthetized rats. It is filed as in vivo. Particulars: iv, rapid i.v. injection (right femoral vein), histamine hydrochloride infusion 0.0552 mg/min/kg, ethyl carbamate anesthesia, male Sprague-Dawley rats. As for the experimental part: The blocking qctivity of histamine H2 -receptors was tested in Sprague-Dawley male rats weighing 345±38 g. Animals which were subjected to a 24-hour hydric diet were tracheotomized under ethyl carbamate anesthesia (1 ml/100 g, 10% w/V i.p.). After cannulating the esophagus and stomach from duodenum, the gastric contents were drained. Then the esophageal cannual was connected to a peristaltic pump, under prior passage over a thermostatic batch at 37° C., and 1/800N sodium hydroxide solution in water flowed through. The cannula from the stomach was connected by a tube leading to a Ph-meter electrode, and the readings were graphically recorded. pH increase occurring by perfusion of the sodium hydroxide solution at 1.6 ml/min. rate is antagonized by continuous infusion of histamine hydrochloride through a catheter implanted in the right femoral vein (0.0552 mg/min/kg, 2 ml/hour). After calibrating the pH, test drugs are quickly injected into the right femoral vein. Under these conditions, the activities, expressed at ED50, of some compounds according to the present invention, are determined and set forth as follows, with cimetidine being employed for purposes of comparison: […]
`NC(N)=Nc1nc(CSCCNC=NS(=O)(=O)c2ccc(Cl)cc2)cs1` [Ex. 5, hydrogen maleate, N-p-chlorobenzenesulphonyl--N'-[2-[[[2-[(aminoiminomethyl)amino]-4-thiazolyl]methyl]thio]ethyl]formamidine hydrogen maleate] came in with an ED50 of 0.75 µmol/kg. The result for `CS(=O)(=O)N=CNCCSCc1csc(N=C(N)N)n1` [Ex. 3, hydrogen maleate, N-methansulphonyl-N'-[2-[[[2-[(aminoiminomethyl)amino]-4-thiazolyl]methyl]thio]ethyl]formamidine hydrogen maleate] reads 1.12 µmol/kg; that for `NC(N)=Nc1nc(CSCCNC=NS(=O)(=O)c2ccccc2)cs1` [Ex. 2, hydrogen maleate, N-benzenesulphonyl-N'-[2-[[[2-[(aminoiminomethyl)amino]-4-thiazolyl]methyl]thio]ethyl]formamidine hydrogen maleate], 1.77 µmol/kg. `Cc1ccc(S(=O)(=O)N=CNCCSCc2csc(N=C(N)N)n2)cc1` [Ex. 1, hydrogen maleate, N-p-toluensulphonyl-N'-[2-[[[2-[(aminoiminomethyl)amino]-4-thiazolyl]methyl]thio]ethyl]formamidine hydrogen maleate] gave an ED50 of 0.7 µmol/kg. `NC(N)=Nc1nc(CSCCNC=NS(=O)(=O)c2ccc([N+](=O)[O-])cc2)cs1` [Ex. 4, hydrogen maleate, N-p-nitrobenzenesulphonyl-N'-[2-[[[2-[(aminoiminomethyl)amino]-4-thiazolyl]methyl]thio]ethyl]formamidine hydrogen maleate] yielded an ED50 of 0.61 µmol/kg.

The values above are taken from US4728655A, “Sulfonamidines, process for the production thereof and pharmaceutical compositions containing the same” (Ferrer Internacional S.A., priority 1984, dated 1988).
